Assay results published in patent US9775902B2, “Compounds and methods for treatment of stroke” (FIBROGEN, INC, priority 2006, dated 2017).
Values joined by “and” are separate entries in the source; they are usually repeats but may differ in a detail not shown here. Equal values may be shown once.

Test system: vascular endothelial growth factor (VEGF)
Assay: Brain VEGF gene expression in mice after intravenous injection
Type: in vivo, Swiss Webster mice
Settings: 20 mg/kg i.v., four hours, quantitative real time PCR normalized to 18s RNA, 20 mg/kg
Description: The effect of compounds of the present invention on regulation of cytoprotective and neuroprotective gene expression in brain was evaluated. In one series of experiments, male Swiss Webster mice were administered by intravenous injection various compounds of the present invention. Animals treated by intravenous injection received a 6 ml/kg volume of either 5% Dextrose with an equimolar amount of Meglumine (vehicle control) or 20 mg/kg of a compound of the present invention in 5% dextrose with an equimolar amount of Meglumine Animals were euthanized four hours later and their brains placed in RNAlater (Ambion, Austin Tex.) for subsequent analysis. Tissues were homogenized in Trizol (Invitrogen, Carlsbad Calif.) using 5-mm steel beads in a Mixer Mill (Qiagen, Valencia Calif.). RNA was isolated from the Trizol solution and then further purified using RNeasy kit (Qiagen). cDNA was prepared from […] total RNA using Omniscript reverse transcriptase (Qiagen) and random hexamers. Quantitative real time PCR was performed in a 7900HT instrument (Applied Biosystems, Foster City Calif.) using TaqMan Assays-on-Demand (Applied Biosystems). Gene expression levels were normalized to that of 18s RNA.

O=C(O)CNC(=O)c1nc(Oc2ccccc2F)c2ccccc2c1O [Compound Z, {[1-(2-Fluoro-phenoxy)-4-hydroxy-isoquinoline-3-carbonyl]-amino}-acetic acid]
VEGF gene expression in brain: 2.2 and 2.1
